Test [1] concerns tPA. Description: Ni-NTA pull-down of purified tPA by His6-tagged recombinant proteins. Type of test: binding, human. The conditions noted are these: Ni-NTA beads coated with His6-tagged protein, 1 μg purified tPA, 2 hours room temperature, eluted with imidazole. How it is done: The possibility of a direct protein-protein interaction between tPA and latent PDGF-CC was explored by developing a pull-down assay. Ni-NTA beads were allowed to bind recombinant His6-tagged latent PDGF-CC or PDGF-DD, and purified tPA was added and incubated. Following extensive washings, bound proteins were subsequently eluted with an imidazole-containing buffer, and the eluates were analyzed by immunoblotting using specific antibodies.
To determine a direct protein-protein interaction between tPA and PDGF-CC, His6-tagged recombinant protein species were bound to Ni-NTA-agarose (Qiagen) and then incubated with 1 μg of purified tPA for 2 hours at room temperature. Uncoated and PDGF-DD coated Ni-NTA beads were used as controls. The beads were washed thoroughly, and His6-tagged proteins were specifically eluted with 400 mM imidazole. Eluted proteins were analyzed by SDS-PAGE under reducing conditions and immunoblotted with antibodies against human tPA (see above). The membranes were subsequently stripped and reprobed with specific antibodies.
Target sequence in this assay (P00750 36-562): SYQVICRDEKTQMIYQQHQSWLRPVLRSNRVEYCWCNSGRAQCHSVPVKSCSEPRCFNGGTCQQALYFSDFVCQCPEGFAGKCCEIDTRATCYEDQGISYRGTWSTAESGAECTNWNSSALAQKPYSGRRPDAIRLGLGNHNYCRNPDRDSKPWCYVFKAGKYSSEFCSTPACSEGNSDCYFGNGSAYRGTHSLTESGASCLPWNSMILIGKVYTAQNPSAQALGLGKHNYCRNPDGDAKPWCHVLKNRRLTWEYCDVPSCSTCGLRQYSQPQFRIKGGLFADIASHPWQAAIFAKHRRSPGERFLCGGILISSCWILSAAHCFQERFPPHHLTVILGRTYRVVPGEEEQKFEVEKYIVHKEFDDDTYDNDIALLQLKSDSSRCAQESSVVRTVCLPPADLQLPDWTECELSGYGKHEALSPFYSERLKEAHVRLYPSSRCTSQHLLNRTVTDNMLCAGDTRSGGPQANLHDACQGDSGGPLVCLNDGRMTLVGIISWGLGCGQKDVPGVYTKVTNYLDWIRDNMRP

Test [2] concerns secreted protease(s) present in the conditioned media from AG1523 cells. As to the kind of experiment: In vitro cleavage of recombinant latent PDGF-CC by AG1523 conditioned medium, protease inhibitor profile. The note with it: inhibitor preincubated 30 min with AG1523 medium, then recombinant PDGF-CC 37° C. overnight; AEBSF 1 mM, leupeptin 100 μM, aprotinin 100 μM; immunoblot. Type of test: biochemical, human. On the procedure:
In an in vitro assay, the properties of the enzyme(s) involved in cleavage and activation of PDGF-CC were studied by mixing serum-free conditioned media from AG1523 cells with His6-tagged recombinant full-length PDGF-CC.
The class of enzyme(s) responsible for cleavage and activation of latent PDGF-CC was established by generating an enzyme inhibitor profile of the enzymatic activity (FIG. 1E). Eight different protease inhibitors (see FIG. 1F) were separately preincubated with conditioned media from AG1523 cells, and then incubated with His6-tagged recombinant full-length PDGF-CC.
(§1) All protease inhibitors were purchased from Sigma and the concentrations used were as follows: AEBSF 1 mM, bestatin 100 μM, leupeptin 100 μM, pepstatin A 10 μM, E64 100 μM, aprotinin 100 μM (˜3 TIU), EDTA 50 mM, and phosphoramidon 100 μM. The protease inhibitors were preincubated with conditioned AG1523 medium at room temperature for 30 min, and then incubated with recombinant PDGF-CC (ratio 10:2) at 37° C. overnight. Recombinant PDGF-CC species were analyzed by immunoblotting as above. To determine whether tPA is the major proteolytic enzyme responsible for the PDGF-CC processing in AG1523 conditioned medium, AG1523 cells were cultured in serum-free medium, with or without the addition of a synthetic tPA inhibitor tPA-STOP™ (3.5-35 μM, #544, American Diagnostica Inc.) or 100 μM aprotinin as a positive control. The conditioned serum-free medium was collected, and proteins were precipitated before SDS-PAGE and immunoblotting using antibodies against PDGF-C (see above).

The test system of test [3] is tPA. Description: Processing of endogenous PDGF-CC by growing AG1523 cells with tPA inhibitors in serum-free medium. Format: cell-based, human. The conditions noted are these: tPA-STOP 3.5-35 μM, aprotinin 100 μM in serum-free medium of AG1523 cells; immunoblot. On the procedure: as §1
(A western blot detects proteins with antibodies after separation by electrophoresis.)

Five compounds from patent US20060104978A1, “Methods and compositions for PDGF-C activation and inhibition” (LUDWIG INSTITUTE FOR CANCER RESEARCH, priority 2003, published 2006) can be followed below.

Consider “PDGF-DD: recombinant His6-tagged latent full-length PDGF-DD”, for which the “binding of tPA in pull-down” value in the test with tPA [1] is recorded as “failed to do so”. As for `CC(=O)N[C@@H](CC(C)C)C(=O)N[C@@H](CC(C)C)C(=O)N[C@H](C=O)CCCNC(=N)N` [leupeptin], the “inhibition of proteolytic cleavage of latent PDGF-CC” value (shortened to “inhibition … of latent PDGF-CC”) in test [2] was “inhibited the proteolytic cleavage of latent PDGF-CC”.

In the case of `NCCc1ccc(S(=O)(=O)F)cc1` [AEBSF], the “inhibition … of latent PDGF-CC” value in test [2] was “inhibited the proteolytic cleavage of latent PDGF-CC”.

Consider `Cl.Cl.N=C(N)c1ccc(C=C2CCCCC(=Cc3ccc(C(=N)N)cc3)C2=O)cc1` [tPA-STOP™], for which the “inhibition of processing of endogenous full-length PDGF-CC” value with tPA [3] is reported as “in a dose-dependent way, prevented processing of full-length PDGF-CC”.

aprotinin: the “inhibition … of latent PDGF-CC” value in test [2] is recorded as “inhibited the proteolytic cleavage of latent PDGF-CC”. The “inhibition of processing of endogenous full-length PDGF-CC” value with tPA [3] is “efficiently inhibited processing of latent PDGF-CC”.
